{
  "source": "patent EP1228058B1",
  "about": "“BENZOPYRANYL GUANIDINE DERIVATIVES, PROCESS FOR PREPARATION THEREOF, AND PHARMACEUTICAL COMPOSITIONS CONTAINING THEM” (Dongbu Hannong Chemical Co., Ltd., priority 1999, dated 2001)",
  "assay": "Acute oral toxicity test in rats",
  "settings": "rat, in vivo, single oral dose in 0.5% methyl cellulose, read-out: lethal dose (LD50) for oral administration",
  "procedure": "In this test six-week old SPF SD rats were used with two rats assigned to each group. The compounds of examples 1, 2, 3, 5, 7, 8, 9, 10, 13, 14, 15, 19, 22, 23, 24, 25, 26, 28, 29, 30, 31, 32, 33, 34, 35, 36, 37, 38, 39, 40, 41, 44, 46, 47, 48, 49, 51, 52, 57, 58, 60, 62, 64, 67, 68, 69, 71 and 72 were suspended in 0.5% methyl cellulose, respectively, and administered orally at a single dose of 1 g/kg using a ball-tipped needle. The dosing volume was 10 ml/kg. […] All survivors at the end of the observation period underwent laparotomy under ether anesthesia and the blood samples were taken from the abdominal aorta for hematological tests and biochemical analysis. After sacrificing the animals, autopsy was performed for macroscopic observation of the organs and tissues. Tissue samples of vital organs from macroscopic legion were removed and fixed in 10% neutral buffered formalin solution, then processed by standard procedures for histopathology and examined under light microscope. There were no significant changes in clinical symptoms, body weight and mortalities. Also in hematology, serum chemistry parameters and macroscopic observation, no drug-related changes were observed.",
  "data": [
    {"molecule": "COC(OC)[C@]1(C)Oc2ccc([N+](=O)[O-])cc2[C@H](NC(=NC#N)Nc2ccc(Cl)cc2)[C@H]1O", "note": "[Example 1, (2R, 3R, 4S)-N''-cyano-N-(6-nitro-3,4-dihydro-3-hydroxy-2-methyl-2-dimethoxymethyl-2H-benzopyran-4-yl)-N'-(4-chlorophenyl)guanidine]", "values": [
      {"measurement": "LD50", "result": "> 1000", "unit": "mg/kg"}
    ]},
    {"molecule": "COC(OC)[C@]1(C)Oc2ccc([N+](=O)[O-])cc2[C@H](NC(=NC#N)Nc2cccc(Cl)c2)[C@H]1O", "note": "[Example 3, (2R, 3R, 4S)-N''-cyano-N-(6-nitro-3,4-dihydro-3-hydroxy-2-methyl-2-dimethoxymethyl-2H-benzopyran-4-yl)-N'-(3-chlorophenyl)guanidine]", "values": [
      {"measurement": "LD50", "result": "> 1000", "unit": "mg/kg"}
    ]},
    {"molecule": "COC(OC)[C@]1(C)Oc2ccc([N+](=O)[O-])cc2[C@H](NC(=NC#N)Nc2ccc([N+](=O)[O-])cc2)[C@H]1O", "note": "[Example 5, (2R, 3R, 4S)-N''-cyano-N-(6-nitro-3,4-dihydro-3-hydroxy-2-methyl-2-dimethoxymethyl-2H-benzopyran-4-yl)-N'-(4-nitrophenyl)guanidine]", "values": [
      {"measurement": "LD50", "result": "> 1000", "unit": "mg/kg"}
    ]},
    {"molecule": "COc1ccc(NC(=NC#N)N[C@H]2c3cc([N+](=O)[O-])ccc3O[C@@](C)(C(OC)OC)[C@@H]2O)cc1", "note": "[Example 8, (2R, 3R, 4S)-N''-cyano-N-(6-nitro-3,4-dihydro-3-hydroxy-2-methyl-2-dimethoxymethyl-2H-benzopyran-4-yl)-N'-(4-methoxyphenyl) guanidine]", "values": [
      {"measurement": "LD50", "result": "> 1000", "unit": "mg/kg"}
    ]},
    {"molecule": "COc1ccc(NC(=NC#N)N[C@@H]2c3cc([N+](=O)[O-])ccc3O[C@@](C)(C(OC)OC)[C@H]2O)cc1", "note": "[Example 9, (2R, 3S, 4R)-N''-cyano-N-(6-nitro-3,4-dihydro-3-hydroxy-2-methyl-2-dimethoxymethyl-2H-benzopyran-4-yl)-N'-(4-methoxyphenyl) guanidine]", "values": [
      {"measurement": "LD50", "result": "> 1000", "unit": "mg/kg"}
    ]},
    {"molecule": "COC(OC)[C@@]1(C)Oc2ccc([N+](=O)[O-])cc2[C@@H](NC(=NC#N)Nc2cccc(Cl)c2)[C@@H]1O", "note": "[Example 13, (2S, 3S, 4R)-N''-cyano-N-(6-nitro-3,4-dihydro-3-hydroxy-2-methyl-2-dimethoxymethyl-2H-benzopyran-4-yl)-N'-(3-chlorophenyl)guanidine]", "values": [
      {"measurement": "LD50", "result": "> 1000", "unit": "mg/kg"}
    ]},
    {"molecule": "COC(OC)[C@@]1(C)Oc2ccc([N+](=O)[O-])cc2[C@H](NC(=NC#N)Nc2cccc(C(F)(F)F)c2)[C@H]1O", "note": "[Example 14, (2S, 3R, 4S)-N''-cyano-N-(6-nitro-3,4-dihydro-3-hydroxy-2-methyl-2-dimethoxymethyl-2H-benzopyran-4-yl)-N'-(3-trifluoromethylphenyl)guanidine]", "values": [
      {"measurement": "LD50", "result": "> 1000", "unit": "mg/kg"}
    ]},
    {"molecule": "COC(OC)[C@]1(C)Oc2ccc([N+](=O)[O-])cc2[C@@H](NC(=NC#N)Nc2ccc(C)cc2)[C@@H]1O", "note": "[Example 19, (2R, 3S, 4R)-N''-cyano-N-(6-nitro-3,4-dihydro-3-hydroxy-2-methyl-2-dimethoxymethyl-2H-benzopyran-4-yl)-N'-(4-methylphenyl)guanidine]", "values": [
      {"measurement": "LD50", "result": "> 1000", "unit": "mg/kg"}
    ]},
    {"molecule": "COC(OC)[C@]1(C)Oc2ccc([N+](=O)[O-])cc2[C@@H](NC(=NC#N)NCc2ccccc2)[C@@H]1O", "note": "[Example 23, (2R, 3S, 4R)-N''-cyano-N-(6-nitro-3,4-dihydro-3-hydroxy-2-methyl-2-dimethoxymethyl-2H-benzopyran-4-yl)-N'-benzylguanidine]", "values": [
      {"measurement": "LD50", "result": "> 1000", "unit": "mg/kg"}
    ]},
    {"molecule": "COC(OC)[C@]1(C)Oc2ccccc2[C@H](NC(=NC#N)Nc2ccc(Cl)cc2)[C@H]1O", "note": "[Example 26, (2R, 3R, 4S)-N''-cyano-N-(3,4-dihydro-3-hydroxy-2-methyl-2-dimethoxymethyl-2H-benzopyran-4-yl)-N'-(4-chlorophenyl)guanidine]", "values": [
      {"measurement": "LD50", "result": "> 1000", "unit": "mg/kg"}
    ]},
    {"molecule": "C[C@]1(CO)Oc2ccc([N+](=O)[O-])cc2[C@H](NC(=NC#N)Nc2ccc(Cl)cc2)[C@H]1O", "note": "[Example 28, (2R, 3R, 4S)-N''-cyano-N-(6-nitro-3,4-dihydro-3-hydroxy-2-methyl-2-hydroxymethyl-2H-benzopyran-4-yl)-N'-(4-chlorophenyl)guanidine]", "values": [
      {"measurement": "LD50", "result": "> 1000", "unit": "mg/kg"}
    ]}
  ]
}
